Key:
[1] = tested on: α2-adrenergic receptors; test: In vivo α2-antagonism test: reestablishment of the righting reflex lost through xylazine in rats; design: species or system rat; conditions: xylazine-induced loss of righting reflex
Protocol: (§1) In vivo α2 -antagonism test
(§2) The α2 -antagonist properties of the compounds of the invention were determined according to a method described by F. Colpaert et al., (DRUG Development Research 7, 125-140, 1986) by measuring the effects produced by those compounds on the loss of the correcting reflex and exophthalmia induced in rats by xylazine, a known agonist of α2-adrenergic receptors in the central nervous system.
(§3) The reestablishment of the righting reflex measures the α2 -antagonist potential of the compounds, whilst the return of the eye to a normal position measures the α1 -antagonist potential.

[2] = tested on: α1; test: In vivo test: return of the eye to a normal position (xylazine-induced exophthalmia) in rats, α1-antagonist potential; design: species or system rat
Protocol: as §1, §2, §3

`Cl.FC(F)(F)C(Cc1c[nH]cn1)c1ccccc1` (centres unmarked) [Example 2, 4-(2-Phenyl-3,3,3-trifluoropropan-1-yl)-imidazole hydrochloride] was tested, and the “ED50 (α2)” value [1] was 5 mg/kg and the “ED50 (α1)” value [2] was “higher than 10 mg/kg”.
